Data set [1] in a line: Human pharmacokinetic study, urine (DART TOF-MS). Format: in vivo. How it is done: (§1) Cranberry extracts 5 and 6 were prepared by HerbalScience Singapore Pte. Ltd. and prepared as 150-mg and 140-mg capsules, respectively. Each pharmacokinetic study (1 per extract) consisted of five healthy consenting adults ranging in age from 25 to 50 were instructed not to consume foods rich in phenolics 24 hours prior to the initiation of the study. A certified individual collected urine samples at several time intervals between 0 and 480 minutes after two capsules of a cranberry extract were ingested immediately after the time zero time point. Blood samples were handled with approved protocols and precautions, centrifuged to remove cells and the serum fraction was collected and frozen. Blood was not treated with heparin to avoid any analytical interference. Serum samples were stored frozen at −20° C. until analysis. The serum was extracted with an equal volume of neat ethanol (USP) to minimize background of proteins, peptides, and polysaccharides present in serum. The ethanol extract was centrifuged at 9300×g for 10 minutes at 4° C., the supernatant was removed, concentrated to 200 μL volume which was then used for DART TOF-MS analyses (FIG. 10). Urine samples were handled with approved protocols and precautions and frozen. Serum samples were stored frozen until analysis. The urine samples were analyzed neat by DART TOF-MS (FIGS. 11 and 12).

Data set [2] can be described thus: Human pharmacokinetic study, serum (DART TOF-MS). The note with it: 5 healthy adults, Extract 5 300 mg oral. Format: in vivo. Here is the method: as §1

Where only a bound is given, the exact number is not on record here.

For `O=C(O)c1ccc(O)cc1` [4-hydroxybenzoic acid], in data set [1] (human, in vivo, po), the “time of appearance in urine” value was at most 1 h and the “time through which urine levels increased (declined thereafter)” value was determined as 2 h. Besides, the “presence in urine at 8 hours post-ingestion” value (“presence in urine” for short) in data set [1] (in vivo, po) is “still present”.
As to `C[C@@H](O)[C@H](N)C(=O)O` [L-threonine], in data set [1] (human, in vivo, po), the “time of appearance in urine” value was at most 1 h and the “time through which urine levels increased (declined thereafter)” value came out at 2 h.
For `CC1=CC(=O)CC(C)(C)[C@@]1(O)/C=C/C(C)=C\C(=O)O` [abscisic acid], in data set [2], the “time after which undetectable in serum” value amounted to 180 min and the “time through which serum levels increased (declined thereafter)” value was “about 40 minutes”. Also, in data set [1] (Extract 5 300 mg oral), the “abundance in urine relative to other bioactives” value is recorded as “most abundant” and the “time of peak level in urine” value was 2 h. In addition, in data set [1] (two vegcaps Extract 6 oral), the “presence in urine” value is reported as “still present” and the “time through which urine levels increased (declined thereafter)” value is 2 h.
As to `NCC(=O)CCC(=O)O` [aminolevulenic acid], in data set [1] (in vivo, po), the “time of appearance in urine” value was at most 1 h and the “time through which urine levels increased (declined thereafter)” value amounted to 2 h.
For the compound `O=CC=Cc1ccccc1` [cinnamaldehyde], in data set [1] (human, in vivo, po), the “time of appearance in urine” value was at most 1 h and the “time through which urine levels increased (declined thereafter)” value was 2 h. Also, in data set [1] (in vivo, po), the “presence in urine” value is reported as “still present”.
As to `COc1ccc(C2COc3cc(O)ccc3C2)c(O)c1` (stereo not shown) [vestitol], in data set [1] (in vivo, po), the “presence in urine” value is recorded as “still present”, the “time of appearance in urine” value was at most 1 h and the “time through which urine levels increased (declined thereafter)” value came out at 2 h.
As to `c1ccc(-c2cc3ccccc3[nH]2)cc1` [α-phenylindol], in data set [1] (in vivo, po), the “presence in urine” value is on record as “still present”, the “time of appearance in urine” value is at most 1 h and the “time through which urine levels increased (declined thereafter)” value was determined as 2 h.
Turning to S-petasine, in data set [2], the “time after which undetectable in serum” value turned out to be 180 min and the “time through which serum levels increased (declined thereafter)” value is on record as “about 40 minutes”. In addition, the “time through which urine levels increased (declined thereafter)” value in data set [1] (two vegcaps Extract 6 oral) is 2 h.
For chitosan, in data set [1] (in vivo, po), the “presence in urine” value is reported as “still present”, the “time of appearance in urine” value was at most 1 h and the “time through which urine levels increased (declined thereafter)” value worked out at 2 h.

The record behind these values is patent US20100028469A1, “Extracts of Cranberry and Methods of Using Thereof” (priority 2008, published 2010).
